Data on 17 molecules can be found in ChEMBL document CHEMBL5543136, “Discovery of Novel Heterotricyclic Compounds as DNA-Dependent Protein Kinase (DNA-PK) Inhibitors with Enhanced Chemosensitivity, Oral Bioavailability, and the Ability to Potentiate Cancer Immunotherapy” (J Med Chem, 2024).

Activity calls are given as the source filed them. No cut-off for these calls is given here.

In data set [1] the test system is CT26. The experiment in a line: Antiproliferative activity against mouse CT26 cells assessed as inhibition of cell growth incubated for 48 hrs by CCK-8 assay relative to control. It counts as functional.
The test system of data set [2] is B16-F10. The experiment in a line: Antiproliferative activity against mouse B16-F10 cells assessed as inhibition of cell growth incubated for 48 hrs by CCK-8 assay relative to control. It is filed as functional.
Data set [3] deals with Jurkat. Nature of the data set: Antiproliferative activity against human Jurkat cells assessed as inhibition of cell growth incubated for 48 hrs by CCK-8 assay relative to control. It is filed as functional.
In data set [4] the test system is CT26. Nature of the data set: Antitumor activity against mouse CT26 cells implanted in BALB/c mouse assessed as tumor growth inhibition at 2.5 mg/kg, iv administered once a week for 21 days relative to control. It is filed as functional. The following applies: CT26, 504 h, time 21 day, read-out: TGI.
The subject of data set [5] is CT26. The experiment in a line: Antitumor activity against mouse CT26 cells implanted in BALB/c mouse assessed as tumor growth inhibition at 10 mg/kg, ip administered once daily for 21 days relative to control. It counts as functional. Conditions: CT26, 504 h, time 21 day, read-out: TGI.
A short description of data set [6]: Toxicity in BALB/c mouse implanted with mouse CT26 cells assessed as weight loss at 2.5 mg/kg, iv administered once a week for 21 days. It counts as organism-based. Conditions: in vivo, 504 h, time 21 day.
Data set [7] has as its system CT26. Nature of the data set: Antiproliferative activity against mouse CT26 cells assessed as reduction in cell viability incubated for 48 hrs by CCK-8 assay. It counts as functional, cell-based. The following applies: CT26, 48 h.
Data set [8] relates to B16-F10. The experiment in a line: Antiproliferative activity against mouse B16-F10 cells assessed as reduction in cell viability incubated for 48 hrs by CCK-8 assay. It is filed as functional, cell-based. Conditions: B16-F10, 48 h.
Data set [9] concerns Jurkat. Nature of the data set: Antiproliferative activity against human Jurkat cells assessed as reduction in cell viability incubated for 48 hrs by CCK-8 assay. It is filed as functional, cell-based.
Data set [10] deals with CT26. The experiment in a line: Synergistic antiproliferative activity against mouse CT26 cells assessed as reduction in cell viability incubated for 48 hrs in presence of doxorubicin by CCK-8 assay. It counts as functional, cell-based. The following applies: CT26, 48 h.
Data set [11] relates to B16-F10. Nature of the data set: Synergistic antiproliferative activity against mouse B16-F10 cells assessed as reduction in cell viability incubated for 48 hrs in presence of doxorubicin by CCK-8 assay. It counts as functional, cell-based. The following applies: B16-F10, 48 h.
The test system of data set [12] is Jurkat. The experiment in a line: Synergistic antiproliferative activity against human Jurkat cells assessed as reduction in cell viability incubated for 48 hrs in presence of doxorubicin by CCK-8 assay. It counts as functional, cell-based.
Another data set has as its system HepG2. The experiment in a line: Inhibition of DNA damage repair in human HepG2 cells assessed as reduction in gammaH2AX expression level at 20 uM by Western blot analysis. It is filed as functional, cell-based.
The test system of data set [13] is Cell membrane. Nature of the data set: Induction of mitochondrial membrane potential loss in human Jurkat cells at 1 uM incubated for 24 hrs by JC-1 staining based flow cytometric analysis. It counts as cell membranes.
For data set [14], the target named is DNA-dependent protein kinase catalytic subunit (Homo sapiens, UniProt P78527). The experiment in a line: Inhibition of human full-length DNA-PK using EPPLSQEAFADLWKK as substrate incubated for 60 mins in presence of ATP by ADP-Glo kinase assay.
Chain of DNA-dependent protein kinase catalytic subunit (P78527 whole entry): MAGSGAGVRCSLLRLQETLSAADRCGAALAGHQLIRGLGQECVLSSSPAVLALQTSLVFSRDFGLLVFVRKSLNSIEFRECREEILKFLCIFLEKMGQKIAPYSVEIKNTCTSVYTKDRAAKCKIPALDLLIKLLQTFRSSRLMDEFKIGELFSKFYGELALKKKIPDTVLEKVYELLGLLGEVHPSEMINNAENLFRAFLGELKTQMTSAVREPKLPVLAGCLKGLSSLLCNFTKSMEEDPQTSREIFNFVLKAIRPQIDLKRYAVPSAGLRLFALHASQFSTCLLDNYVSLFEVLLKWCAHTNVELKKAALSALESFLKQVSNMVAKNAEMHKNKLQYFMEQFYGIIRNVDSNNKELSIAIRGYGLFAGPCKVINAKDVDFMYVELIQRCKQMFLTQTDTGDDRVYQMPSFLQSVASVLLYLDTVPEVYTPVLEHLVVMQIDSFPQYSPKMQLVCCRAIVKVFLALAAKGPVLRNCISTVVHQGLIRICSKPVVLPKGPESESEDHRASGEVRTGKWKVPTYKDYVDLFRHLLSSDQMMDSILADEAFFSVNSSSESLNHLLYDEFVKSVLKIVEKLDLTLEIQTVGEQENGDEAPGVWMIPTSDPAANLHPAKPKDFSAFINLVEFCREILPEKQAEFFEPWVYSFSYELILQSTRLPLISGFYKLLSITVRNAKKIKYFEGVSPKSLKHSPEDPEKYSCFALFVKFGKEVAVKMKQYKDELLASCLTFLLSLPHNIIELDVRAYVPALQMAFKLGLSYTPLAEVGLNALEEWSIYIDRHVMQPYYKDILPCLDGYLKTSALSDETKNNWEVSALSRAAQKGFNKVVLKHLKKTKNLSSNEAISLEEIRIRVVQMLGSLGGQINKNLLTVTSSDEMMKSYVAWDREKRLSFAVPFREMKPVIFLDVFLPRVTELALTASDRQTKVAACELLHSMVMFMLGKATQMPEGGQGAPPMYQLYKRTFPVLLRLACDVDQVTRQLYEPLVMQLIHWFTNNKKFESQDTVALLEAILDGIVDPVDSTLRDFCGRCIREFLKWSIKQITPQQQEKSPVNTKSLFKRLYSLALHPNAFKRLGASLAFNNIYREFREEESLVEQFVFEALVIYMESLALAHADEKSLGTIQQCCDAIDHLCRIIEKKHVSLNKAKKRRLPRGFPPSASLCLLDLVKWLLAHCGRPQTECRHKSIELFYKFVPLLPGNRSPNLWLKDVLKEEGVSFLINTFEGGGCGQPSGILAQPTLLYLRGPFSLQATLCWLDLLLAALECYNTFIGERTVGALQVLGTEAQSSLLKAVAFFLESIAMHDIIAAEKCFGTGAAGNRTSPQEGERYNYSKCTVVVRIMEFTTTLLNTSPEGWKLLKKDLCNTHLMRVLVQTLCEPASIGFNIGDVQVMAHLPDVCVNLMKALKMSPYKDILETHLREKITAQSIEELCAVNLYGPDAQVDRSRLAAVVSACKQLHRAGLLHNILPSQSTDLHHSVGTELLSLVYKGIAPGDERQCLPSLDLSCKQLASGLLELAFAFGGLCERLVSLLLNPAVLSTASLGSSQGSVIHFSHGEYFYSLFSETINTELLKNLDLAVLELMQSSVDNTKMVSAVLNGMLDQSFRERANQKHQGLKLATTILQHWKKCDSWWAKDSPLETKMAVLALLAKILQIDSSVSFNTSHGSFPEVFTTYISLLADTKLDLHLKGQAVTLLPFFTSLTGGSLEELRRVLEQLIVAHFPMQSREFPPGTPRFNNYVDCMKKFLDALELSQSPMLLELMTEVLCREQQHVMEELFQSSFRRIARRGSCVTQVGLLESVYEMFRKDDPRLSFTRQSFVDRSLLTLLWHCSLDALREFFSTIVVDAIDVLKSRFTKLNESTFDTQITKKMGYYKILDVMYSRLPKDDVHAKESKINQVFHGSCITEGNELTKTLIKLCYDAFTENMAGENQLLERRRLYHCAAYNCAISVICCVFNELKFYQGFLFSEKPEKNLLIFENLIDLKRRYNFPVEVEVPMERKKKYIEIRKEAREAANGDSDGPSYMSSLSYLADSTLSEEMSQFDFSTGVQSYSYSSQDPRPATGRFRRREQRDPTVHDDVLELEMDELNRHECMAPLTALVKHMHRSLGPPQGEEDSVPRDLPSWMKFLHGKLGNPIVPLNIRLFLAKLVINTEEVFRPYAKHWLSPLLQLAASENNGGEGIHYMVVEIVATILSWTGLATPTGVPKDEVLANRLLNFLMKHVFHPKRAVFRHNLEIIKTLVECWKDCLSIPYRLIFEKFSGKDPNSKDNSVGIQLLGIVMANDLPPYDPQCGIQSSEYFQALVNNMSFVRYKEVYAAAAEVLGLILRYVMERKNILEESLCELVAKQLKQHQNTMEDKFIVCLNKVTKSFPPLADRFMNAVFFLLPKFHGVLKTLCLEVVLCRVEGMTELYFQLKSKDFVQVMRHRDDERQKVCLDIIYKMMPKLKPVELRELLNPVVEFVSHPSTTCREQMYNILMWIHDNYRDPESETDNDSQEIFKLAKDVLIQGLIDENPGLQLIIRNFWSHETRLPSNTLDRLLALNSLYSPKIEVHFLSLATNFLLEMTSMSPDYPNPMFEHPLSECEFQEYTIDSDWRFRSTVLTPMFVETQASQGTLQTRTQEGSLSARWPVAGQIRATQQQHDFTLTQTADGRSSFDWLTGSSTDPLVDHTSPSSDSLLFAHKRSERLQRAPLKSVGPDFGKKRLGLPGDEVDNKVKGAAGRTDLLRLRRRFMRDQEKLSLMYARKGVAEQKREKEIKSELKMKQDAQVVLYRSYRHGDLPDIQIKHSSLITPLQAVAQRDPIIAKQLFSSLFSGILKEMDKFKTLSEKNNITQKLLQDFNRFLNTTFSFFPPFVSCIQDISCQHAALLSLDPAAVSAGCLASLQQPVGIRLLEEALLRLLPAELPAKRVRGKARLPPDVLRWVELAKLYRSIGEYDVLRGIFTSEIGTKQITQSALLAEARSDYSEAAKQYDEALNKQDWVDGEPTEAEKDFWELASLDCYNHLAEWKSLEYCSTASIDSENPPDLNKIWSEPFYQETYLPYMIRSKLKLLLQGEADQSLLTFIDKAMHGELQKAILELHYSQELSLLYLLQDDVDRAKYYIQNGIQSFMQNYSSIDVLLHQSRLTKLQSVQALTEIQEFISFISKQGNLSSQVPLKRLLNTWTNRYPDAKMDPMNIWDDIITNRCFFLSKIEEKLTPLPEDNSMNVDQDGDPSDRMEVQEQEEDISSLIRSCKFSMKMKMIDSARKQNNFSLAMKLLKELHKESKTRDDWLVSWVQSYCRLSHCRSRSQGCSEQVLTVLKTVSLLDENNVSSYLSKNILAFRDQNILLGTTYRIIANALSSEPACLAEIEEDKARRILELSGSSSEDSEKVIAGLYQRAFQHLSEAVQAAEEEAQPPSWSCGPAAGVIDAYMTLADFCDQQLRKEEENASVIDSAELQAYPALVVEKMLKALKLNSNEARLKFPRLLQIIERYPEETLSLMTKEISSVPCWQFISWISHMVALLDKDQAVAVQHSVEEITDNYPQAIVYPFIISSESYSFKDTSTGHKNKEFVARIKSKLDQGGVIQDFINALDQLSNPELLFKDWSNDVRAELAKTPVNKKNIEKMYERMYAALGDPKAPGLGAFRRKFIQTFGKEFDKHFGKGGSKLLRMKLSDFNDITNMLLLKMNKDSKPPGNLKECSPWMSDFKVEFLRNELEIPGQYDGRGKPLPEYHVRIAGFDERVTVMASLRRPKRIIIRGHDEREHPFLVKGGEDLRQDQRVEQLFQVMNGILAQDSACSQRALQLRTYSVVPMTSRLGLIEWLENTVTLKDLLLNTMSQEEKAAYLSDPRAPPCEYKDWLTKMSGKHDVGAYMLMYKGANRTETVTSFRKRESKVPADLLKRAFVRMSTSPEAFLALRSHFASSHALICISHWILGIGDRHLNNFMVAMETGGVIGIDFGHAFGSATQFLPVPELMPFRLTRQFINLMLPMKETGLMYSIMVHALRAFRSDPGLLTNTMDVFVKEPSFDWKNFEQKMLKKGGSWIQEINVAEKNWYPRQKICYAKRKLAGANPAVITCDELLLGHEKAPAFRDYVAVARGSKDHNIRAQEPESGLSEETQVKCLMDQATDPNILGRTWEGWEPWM
Data set [15] concerns B16-F10. Nature of the data set: Antitumor activity against mouse B16-F10 cells implanted in C57BL/6 mouse assessed as tumor growth inhibition at 50 mg/kg, ip administered once daily for 13 days relative to control. It is filed as functional. Conditions: B16-F10, 312 h, time 13 day, read-out: TGI.
Data set [16] in a line: Toxicity in C57BL/6 mouse implanted with mouse B16-F10 cells assessed as effect on body weight at 50 mg/kg, ip administered once daily for 13 days. It counts as organism-based. Conditions: in vivo, 312 h, time 13 day.
The subject of data set [17] is B16-F10. The experiment in a line: Immunomodulatory activity in mouse B16-F10 cells implanted in C57BL/6 mouse assessed as percentage of CD3 positive CD4 positive cells in tumor at 50 mg/kg, ip administered once daily for 13 days by flow cytometric analysis (reference value: 0.86%). Conditions: time 13 day. It is filed as functional.
The subject of data set [18] is B16-F10. The experiment in a line: Immunomodulatory activity in mouse B16-F10 cells implanted in C57BL/6 mouse assessed as percentage of CD3 positive CD8 positive cells in tumor at 50 mg/kg, ip administered once daily for 13 days by flow cytometric analysis (reference value: 0.99%). It counts as functional. The following applies: time 13 day.
The test system of data set [19] is Jurkat. The experiment in a line: Induction of cell cycle arrest in human Jurkat cells assessed as decrease in S phase cells at 1 uM incubated for 24 hrs in presence of doxorubicin by PI staining based flow cytometric analysis. It counts as functional.
The test system of data set [20] is Jurkat. Nature of the data set: Induction of cell cycle arrest in human Jurkat cells assessed as increase in G2/M phase cells at 1 uM incubated for 24 hrs in presence of doxorubicin by PI staining based flow cytometric analysis. It is filed as functional.
Data set [21] has as its system Cell membrane. The experiment in a line: Induction of mitochondrial membrane potential loss in human Jurkat cells at 1 uM incubated for 24 hrs in presence of doxorubicin by JC-1 staining based flow cytometric analysis. It counts as cell membranes.

For the molecule `COc1cccc2c1C(=O)c1c(O)c3c(c(O)c1C2=O)C[C@@](O)(C(=O)CO)C[C@@H]3O[C@H]1C[C@H](N)[C@H](O)[C@H](C)O1` [DOXORUBICIN], the “inhibition (INH)” value stood at 9.75% in the data set on CT26 [1], 6.2% in the data set on B16-F10 [2] and 23% in the data set with Jurkat [3]. The inhibition in vivo at 2.5 mg/kg in the data set with CT26 [4] was found to be 25.9%. Moreover, the inhibition in vivo at 10 mg/kg in the data set on CT26 [5] amounted to 30.8%. For the same molecule, in data set [6], the Activity result is on record as “Non-Toxic”.
Regarding `Cc1cc2ncnn2cc1Nc1ncc2c(n1)N(C1CCOCC1)CC(=O)N2C`, the IC50 with CT26 [7] was determined as 32.9 µM; in the data set on B16-F10 [8], 46.8 µM; in the data set on Jurkat [9] it was 11.4 µM; with CT26 [10] it was 9.35 µM; with B16-F10 [11], 20.6 µM; in the data set with Jurkat [12], 0.11 µM. The inhibition result in the data set with HepG2 was “Active”. Also, in the data set on Cell membrane [13], the outcome was inactive.
As to `Cc1cc2ncnn2cc1Nc1ncc2c(n1)N(C1CCOCC1)Cc1nnc(C)n1-2`, the IC50 in data set [14] is 0.0084 µM; with CT26 [7], more than 50 µM; in the data set on B16-F10 [8] it was more than 50 µM; with Jurkat [9], 25.2 µM.
Regarding `Cc1cnc(-c2cnn(C)c2)cc1Nc1ncc2c(n1)N(C1CCOCC1)Cc1nccn1-2`, the IC50 was 0.0294 µM in [14], more than 50 µM with CT26 [7], more than 50 µM in the data set on B16-F10 [8] and 15 µM in the data set with Jurkat [9].
With `Cc1cc2cccnc2cc1Nc1ncc2c(n1)N(C1CCOCC1)Cc1nnc(C)n1-2`, the IC50 in [14] amounted to 0.00062 µM; in the data set on CT26 [7] it was 5.2 µM; in the data set on B16-F10 [8], 12.9 µM; in the data set on Jurkat [9] it was 0.8 µM; with CT26 [10], 1.5 µM; with B16-F10 [11], 6.5 µM. Moreover, the IC50 in the data set on Jurkat [12] was 0.05 µM.
As for `c1cn2c(n1)CN(C1CCOCC1)c1nc(Nc3ccc4nccnc4c3)ncc1-2`, the IC50 in data set [14] was determined as 0.0628 µM; with CT26 [7], 27.6 µM; in the data set on B16-F10 [8], 31.9 µM; in the data set with Jurkat [9] it was 0.8 µM; in the data set with CT26 [10], 14.9 µM; in the data set on B16-F10 [11], 20.9 µM. Moreover, in the data set on Jurkat [12], the IC50 is 0.21 µM.
For the molecule `Cc1cc2cccnc2cc1Nc1ncc2c(n1)N(C1CCOCC1)Cc1nccn1-2`, the IC50 in [14] is 0.00035 µM; in the data set on CT26 [7] it was 8.9 µM; with B16-F10 [8] it was 19.5 µM; in the data set on Jurkat [9] it was 0.7 µM; in the data set with CT26 [10], 3.1 µM; with B16-F10 [11], 7.5 µM. Besides, in the data set with Jurkat [12], the IC50 worked out at 0.04 µM.
As for `COc1ccc(Nc2ncc3c(n2)N(C2CCOCC2)Cc2nccn2-3)c(C)c1`, the IC50 came out at 0.0089 µM in [14]; 31.2 µM in the data set with CT26 [7]; 41.8 µM in the data set on B16-F10 [8]; 1.4 µM with Jurkat [9]; 15.3 µM in the data set with CT26 [10]; 21.9 µM in the data set on B16-F10 [11]. Moreover, the IC50 with Jurkat [12] came to 0.51 µM.
On to `Cc1nnc2n1-c1cnc(Nc3ccc4nccnc4c3)nc1N(C1CCOCC1)C2`, for which the IC50 in data set [14] is 0.0518 µM; in the data set with CT26 [7], 19.4 µM; in the data set on B16-F10 [8], 26.9 µM; in the data set on Jurkat [9] it was 0.9 µM; in the data set on CT26 [10], 9.7 µM; in the data set on B16-F10 [11], 26.9 µM. Besides, the 50% inhibitory concentration (IC50) in the data set on Jurkat [12] came out at 0.17 µM.
On to `c1cnc2cc(Nc3ncc4c(n3)N(C3CCOCC3)Cc3nncn3-4)ccc2n1`, for which the half-inhibitory concentration (IC50) in data set [14] was 0.0715 µM; in the data set on CT26 [7], 45.9 µM; in the data set on B16-F10 [8] it was more than 50 µM; with Jurkat [9] it was 4.1 µM.
In the case of `COc1ccc(Nc2ncc3c(n2)N(C2CCOCC2)Cc2nnc(C)n2-3)c(C)c1`, the IC50 in data set [14] was 0.0153 µM; in the data set on CT26 [7], more than 50 µM; with B16-F10 [8] it was more than 50 µM; in the data set on Jurkat [9], more than 50 µM.
For the molecule `Cc1cc2ncnn2cc1Nc1ncc2c(n1)N(C1CCOCC1)Cc1nncn1-2`, the half-maximal inhibitory concentration (IC50) in data set [14] was 0.0056 µM; in the data set with CT26 [7], more than 50 µM; in the data set with B16-F10 [8], more than 50 µM; in the data set on Jurkat [9], more than 50 µM.
Regarding `Cc1c(COc2cc(OCc3cccc(C#N)c3)c(CN3CCCCC3C(=O)NCCNC(=O)CCCC[C@@H]3SC[C@@H]4NC(=O)N[C@@H]43)cc2Cl)cccc1-c1ccccc1` (stereo partly specified), the inhibition in vivo at 50 mg/kg in the data set with B16-F10 [15] came to 48.2%. Besides, the Activity result in [16] is “Non-Toxic”; in the data set with B16-F10 [17], 3.23%; in the data set on B16-F10 [18], 3.53%.
`Cc1cnc(-c2cnn(C)c2)cc1Nc1ncc2c(n1)N(C1CCOCC1)Cc1nncn1-2`: the IC50 was 0.0261 µM in data set [14], more than 50 µM in the data set on CT26 [7], more than 50 µM in the data set on B16-F10 [8] and more than 50 µM with Jurkat [9].
Consider `Cc1cnc(-c2cnn(C)c2)cc1Nc1ncc2c(n1)N(C1CCOCC1)Cc1nnc(C)n1-2`, for which the IC50 in data set [14] is 0.0214 µM; in the data set on CT26 [7], more than 50 µM; with B16-F10 [8], more than 50 µM; in the data set with Jurkat [9] it was 5.7 µM.
As to `Cc1cc2ncnn2cc1Nc1ncc2c(n1)N(C1CCOCC1)Cc1nccn1-2`, the IC50 in data set [14] is 0.0036 µM; with CT26 [7], more than 50 µM; in the data set on B16-F10 [8], more than 50 µM; with Jurkat [9], 9.4 µM.
Regarding `Cc1cc2ncnn2cc1Nc1ncc2c(n1)n(C1CCOCC1)c(=O)n2C` [AZD-7648], the IC50 with CT26 [7] was determined as 18.8 µM; with B16-F10 [8], 33.6 µM; in the data set on Jurkat [9], 12.3 µM; in the data set on CT26 [10], 6.74 µM; in the data set with B16-F10 [11] it was 11.4 µM; in the data set on Jurkat [12], 0.09 µM. In the data set with HepG2, the inhibition result was “Active”. For the same molecule, the result in the data set with Jurkat [19], in the data set on Jurkat [20] and in the data set with Cell membrane [21] was Active. The result with Cell membrane [13] was inactive.
